Laboratory results published in ChEMBL document CHEMBL1201862, “PubChem BioAssay data set” (2004).
The source made the active and inactive calls.

Key:
[1] = system: Escherichia coli; assay: microbe, parasite or virus in culture
[2] = viability of uninfected HEp-2 cells – cell-based, HTS, cytotoxicity control for RSV inhibitor project, dose response (AID 2410); format: functional; details: human respiratory syncytial virus
[3] = target: Glucose-6-phosphate 1-dehydrogenase (Homo sapiens, UniProt P11413); assay: inhibition of Homo sapiens G6PD, dose series – biochemical, fluorescence, selectivity assay for P. falciparum G6PD inhibitor project, dose response (AID 504792); format: functional
[4] = target: T1, High affinity choline transporter 1 (Homo sapiens, UniProt Q9GZV3); assay: human choline transporter blockers, potency – cell-based, 5-point CRC, membrane potential dye, dose response (AID 504840); format: functional
T1 sequence (Q9GZV3 whole entry): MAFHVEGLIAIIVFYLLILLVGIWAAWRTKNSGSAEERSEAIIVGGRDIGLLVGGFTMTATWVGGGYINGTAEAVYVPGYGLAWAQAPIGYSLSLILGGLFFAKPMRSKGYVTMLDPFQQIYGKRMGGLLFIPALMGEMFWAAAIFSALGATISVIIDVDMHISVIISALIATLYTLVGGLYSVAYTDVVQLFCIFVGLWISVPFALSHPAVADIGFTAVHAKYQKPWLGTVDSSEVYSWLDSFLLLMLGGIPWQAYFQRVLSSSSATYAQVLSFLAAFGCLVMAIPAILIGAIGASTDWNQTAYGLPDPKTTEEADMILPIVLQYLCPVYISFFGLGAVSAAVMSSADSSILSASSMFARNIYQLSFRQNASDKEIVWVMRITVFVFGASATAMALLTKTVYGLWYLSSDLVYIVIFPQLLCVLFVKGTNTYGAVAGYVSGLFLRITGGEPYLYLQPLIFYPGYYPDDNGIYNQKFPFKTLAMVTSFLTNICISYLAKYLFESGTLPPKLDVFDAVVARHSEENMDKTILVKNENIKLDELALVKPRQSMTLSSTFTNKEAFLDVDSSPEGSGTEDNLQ

[5] = cells
[6] = target: T2, Polyadenylate-binding protein 1 (Homo sapiens, UniProt P11940); assay: MLLE binding blockers, Cy5 peptide tracer – biochemical, fluorescence polarization, Cy5-PAM2 peptide, secondary, miRNA deadenylation inhibitor project, dose response (AID 602260); format: functional; details: read-out: IC50_Mean
[7] = target: T2, Polyadenylate-binding protein 1; assay: MLLE domain peptide-binding blockers, IC50 – biochemical, fluorescence polarization, FITC-PAM2 peptide, dose response (AID 602259); format: functional; details: read-out: IC50_Mean
[8] = toxicity toward HepG2 liver cells – cell-based, plate reader, cherry-pick, antagonist series, cytotoxicity control, dose response (AID 743416); format: functional
[9] = blockers of bursicon-stimulated LGR2 cAMP reporter – cell-based, HEK293, CRE-luciferase reporter, cherry pick, set 2, dose response (AID 743343); format: functional;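 also: transfected cells were stimulated with diluted bursicon conditioned medium after compound addition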
[10] = blockade of melanocortin 4 receptor signaling – cell-based, plate reader, cherry pick, counter-screen for LGR2 antagonist project, dose response (AID 743444); format: functional;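 also: transfected HEK 293 cells stimulated with alpha-MSH peptide; potency of inhibitors of the alpha-MSH evoked signal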
[11] = system: Vero; assay: cells; format: functional, cell-based; details: Chlorocebus sabaeus
[12] = viability loss in CEM21 cells – cell-based, CellTiter-Glo luminescence, cherry-picked, cytotoxicity control for viral fusion inhibitor project, dose response (AID 652042); format: functional;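 also: potency for signal decrease meaning cytotoxicity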
[13] = off-target signal loss in HeLa-CEM21 co-culture – HeLa F-luc CTL cells, cherry-picked, counter-screen for HIV-1 Env fusion inhibitor project, dose response (AID 652040); format: functional, cell-based;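 also: potency for signal decrease marking cytotoxic or nonspecific inhibition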
[14] = HIV-1 AD8 envelope cell-cell fusion blockers – cherry-pick, dose response (AID 652062); format: functional, cell-based;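 also: luciferase signal from cell-cell fusion driven by HIV-1 clade B AD8 Env; potency is for inhibitors of fusion seen as a drop in luminescence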

T2 sequence (P11940 whole entry, the tested form may be a part): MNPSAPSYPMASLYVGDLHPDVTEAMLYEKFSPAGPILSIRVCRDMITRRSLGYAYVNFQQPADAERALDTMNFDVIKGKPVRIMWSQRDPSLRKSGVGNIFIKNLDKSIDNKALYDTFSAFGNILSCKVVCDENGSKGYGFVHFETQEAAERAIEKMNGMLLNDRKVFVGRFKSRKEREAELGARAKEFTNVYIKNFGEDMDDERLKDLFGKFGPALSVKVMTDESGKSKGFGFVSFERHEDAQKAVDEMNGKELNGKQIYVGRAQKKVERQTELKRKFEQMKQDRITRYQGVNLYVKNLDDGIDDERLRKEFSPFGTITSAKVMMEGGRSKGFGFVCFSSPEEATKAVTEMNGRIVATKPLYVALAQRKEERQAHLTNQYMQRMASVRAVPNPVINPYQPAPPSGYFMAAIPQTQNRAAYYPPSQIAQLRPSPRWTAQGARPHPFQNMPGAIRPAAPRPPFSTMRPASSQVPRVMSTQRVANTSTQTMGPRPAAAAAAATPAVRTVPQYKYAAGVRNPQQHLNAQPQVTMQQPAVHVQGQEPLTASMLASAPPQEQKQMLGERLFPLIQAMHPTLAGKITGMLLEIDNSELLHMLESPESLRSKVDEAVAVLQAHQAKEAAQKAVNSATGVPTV
Glucose-6-phosphate 1-dehydrogenase, sequence (P11413 whole entry): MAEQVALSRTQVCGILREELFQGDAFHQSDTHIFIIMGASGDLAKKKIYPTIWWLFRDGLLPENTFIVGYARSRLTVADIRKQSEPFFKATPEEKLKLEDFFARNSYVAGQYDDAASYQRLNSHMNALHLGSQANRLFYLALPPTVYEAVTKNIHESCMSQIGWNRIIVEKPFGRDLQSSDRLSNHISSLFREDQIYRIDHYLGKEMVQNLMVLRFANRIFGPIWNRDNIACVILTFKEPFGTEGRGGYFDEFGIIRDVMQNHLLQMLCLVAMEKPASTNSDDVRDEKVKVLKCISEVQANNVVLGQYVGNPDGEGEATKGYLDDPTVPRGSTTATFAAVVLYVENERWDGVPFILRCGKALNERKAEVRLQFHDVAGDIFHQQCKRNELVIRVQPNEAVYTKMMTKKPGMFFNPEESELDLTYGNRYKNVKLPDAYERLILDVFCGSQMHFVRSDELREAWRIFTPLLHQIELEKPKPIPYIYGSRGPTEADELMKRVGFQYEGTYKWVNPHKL

Cc1nn(Cc2ccccc2Cl)c(C)c1NC(=O)c1ccn(C)n1
AC50 [1]: 19.1 µM (active)

Cc1ccc(NC(=O)c2cc(C)n(-c3ccccc3)c2C)cc1
CC50 [2]: 16.9 µM (active) | IC50 [3]: > 80 µM (inactive)

O=C(NC1CCCCC1)C(c1ccc2ncccc2c1)N(Cc1ccc2c(c1)OCO2)C(=O)c1cccs1 (stereo not given)
IC50 [4]: 16.5 µM (active)

COc1cccc(CNC(=O)c2cc3oc4ccccc4c3n2C)c1OC
CC50 [2]: 11.7 µM (active) | IC50 [5]: 4.72 µM (active)

CC(=O)NS(=O)(=O)c1ccc(NC(=O)c2cc(-c3cccs3)nc3ccccc23)cc1
AC50 [1]: 36.4 µM (active)

N=C(N)NC(=S)Nc1ccc(Cl)cc1
IC50 [6]: > 66 µM (inactive) | IC50 [7]: > 66 µM (inactive)

CCNC(=O)c1ccc(NS(=O)(=O)c2ccccc2)cc1
AC50 [1]: 27.4 µM (active)

CCC(=O)Nc1cc2nn(-c3ccc(OC)cc3)nc2cc1C
AC50 [8]: > 52 µM (inactive) | AC50 [9]: 3.64 µM (active) | AC50 [10]: 2.52 µM (active)

COC(=O)C1=C(C)N(Cc2ccccc2)C(=O)N[C@H]1c1ccc(Br)cc1
IC50 [5]: 4.43 µM (active)

Cc1ccc(C(=O)N/C(=C/c2ccco2)C(=O)Nc2cccc(C)c2)cc1
IC50 [4]: 13.7 µM (active)

Cc1ccc(-c2nn(-c3ccccc3)cc2C2CC(c3cccs3)=NN2C(=O)CCCC(=O)O)cc1 (stereo not given)
CC50 [2]: > 50 µM (active) | IC50 [5]: 36.9 µM (active)

CC(=O)Nc1nnc(SCC(=O)c2ccc3c(c2)Cc2ccccc2-3)s1
CC50 [2]: 45.6 µM (active) | IC50 [11]: 10.9 µM (active) | IC50 [5]: 36 µM (active)

CC(C)(C)C(=O)Nc1sc(-c2ccccc2)cc1C(=O)O
CC50 [2]: 17.9 µM (active) | IC50 [11]: 24.1 µM (active) | IC50 [5]: 14.3 µM (active)

COC(=O)CCC(=O)OC1(C)C(=O)C2=CN(c3ccc(OC)cc3)C(c3ccc(OC)cc3)=CC2=C(Br)C1=O (stereo not given)
IC50 [3]: 30.1 µM (inactive)

COc1ccccc1S(=O)(=O)Cc1ccc(C(=O)N2CCN(c3cccc(Cl)c3)CC2)o1
AC50 [12]: 17.1 µM (active) | AC50 [13]: > 70 µM (inactive) | AC50 [14]: 43 µM (active)

O=C(COC(=O)CCCSc1nc2ccccc2[nH]1)NC(=O)NC1CCCC1
IC50 [4]: 7.24 µM (active)

CC1=C(C(=O)O)N2C(=O)C(NC(=O)c3ccn(C)n3)C2SC1 (stereo not given)
IC50 [6]: > 66 µM (inactive) | IC50 [7]: > 66 µM (inactive)
